Here are results for 17 molecules from publication PMC10421270, “Investigation on Novel E/Z 2-Benzylideneindan-1-One-Based Photoswitches with AChE and MAO-B Dual Inhibitory Activity” (Molecules, 2023).

Molecules are shown by their SMILES. Several values for one entry are separate records, joined by “and”; a condition that tells them apart may be missing. Equal values may be shown once. Read-outs that look alike come from different tables or passages of the source.

Series [1] deals with T1, hAChE (Homo sapiens, UniProt P22303).
T1 construct: purchased Sigma Aldrich (Milan, Italy)
The series is described as follows: biochemical. It counts as biochemical.

Another series concerns the target T2, human recombinant MAO B (Homo sapiens, UniProt P27338).
T2 construct: purchased Sigma Aldrich (Milan, Italy); host or cells: baculovirus-infected insect cells
T2 sequence (P27338 1-520): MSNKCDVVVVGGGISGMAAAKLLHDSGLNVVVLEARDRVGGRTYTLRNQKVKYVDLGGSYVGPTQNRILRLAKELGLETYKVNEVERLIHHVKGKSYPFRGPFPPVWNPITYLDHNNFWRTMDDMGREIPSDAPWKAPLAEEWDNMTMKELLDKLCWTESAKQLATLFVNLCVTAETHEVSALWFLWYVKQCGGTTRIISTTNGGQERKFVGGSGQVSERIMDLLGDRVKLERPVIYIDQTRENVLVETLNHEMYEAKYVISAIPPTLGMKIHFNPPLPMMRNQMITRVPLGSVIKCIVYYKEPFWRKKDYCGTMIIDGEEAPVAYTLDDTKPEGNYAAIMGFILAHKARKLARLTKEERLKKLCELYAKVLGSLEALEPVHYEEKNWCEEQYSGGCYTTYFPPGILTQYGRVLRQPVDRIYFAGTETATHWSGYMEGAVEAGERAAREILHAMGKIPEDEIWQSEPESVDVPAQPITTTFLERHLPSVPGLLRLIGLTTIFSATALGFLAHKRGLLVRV
Put plainly: biochemical. The conditions noted are these: mean ± SD of three independent measurements.

The next series has as its target T3, human recombinant MAO-A (Homo sapiens, UniProt P21397).
T3 construct: purchased Sigma Aldrich (Milan, Italy); host or cells: baculovirus-infected insect cells
T3 sequence (P21397 1-527): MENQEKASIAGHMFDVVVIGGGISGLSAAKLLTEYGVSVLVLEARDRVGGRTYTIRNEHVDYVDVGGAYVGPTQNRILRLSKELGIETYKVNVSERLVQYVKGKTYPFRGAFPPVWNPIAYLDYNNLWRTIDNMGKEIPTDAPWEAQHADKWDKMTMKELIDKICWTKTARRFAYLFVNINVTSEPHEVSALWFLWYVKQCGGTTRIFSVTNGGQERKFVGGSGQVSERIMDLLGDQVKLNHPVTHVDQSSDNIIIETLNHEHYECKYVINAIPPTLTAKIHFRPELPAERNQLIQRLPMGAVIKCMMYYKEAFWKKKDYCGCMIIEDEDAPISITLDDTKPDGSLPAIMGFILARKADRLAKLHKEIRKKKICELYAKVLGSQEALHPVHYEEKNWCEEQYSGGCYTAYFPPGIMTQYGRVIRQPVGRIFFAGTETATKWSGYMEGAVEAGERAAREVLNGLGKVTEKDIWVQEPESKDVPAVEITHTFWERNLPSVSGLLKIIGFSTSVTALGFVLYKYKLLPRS
The series is described as follows: biochemical. The conditions noted are these: for inhibition at 10 µM: read-out: MAO-A % inhibition at 10 μM, human MAO-A, values in parentheses; for IC50: MAO-A IC50, human MAO-A, mean ± SD of three independent measurements.

A further series deals with T4, BChE from human serum (Homo sapiens, UniProt P06276).
T4 construct: BChE from human serum; purchased Sigma Aldrich (Milan, Italy); host or cells: human serum
The series is described as follows: biochemical. The conditions noted are these: for inhibition at 10 µM: read-out: BChE % inhibition at 10 μM, 10 μM, values in parentheses, n.a. = not active; for IC50: mean ± SD of three independent measurements.

Series [2] has as its target T1, hAChE. Put plainly: AChE inhibition kinetics (Lineweaver–Burk, replot of slopes). It is filed as biochemical.
Details of series [3]: method as in PMID 35923722. Particulars: Z isomer, thermal reversion; ref [40]; cited from earlier work.
A short description of series [4]: UV-B photoisomerization to the photostationary state (1H NMR). It counts as physicochemical. The conditions noted are these: 10 mM in methanol, two 15 W UV-B lamps, 24 °C; almost completed. The method, then:
Using ^1H NMR spectroscopy, the formation of the Z diastereoisomer can be determined with confidence. Specifically, as previously done for 1a, methanol-d4 solutions of compounds 1b–e at a concentration of about 10 mM were irradiated with UV-B light in a Pyrex NMR tube and observed until the photostationary state (PSS) was reached.
The same procedure was followed for compounds 1f–h. However, due to the poor solubility in methanol at the concentrations required for ^1H NMR analysis, 1f–h was irradiated and monitored in an acetone-d6 solution. The diastereomeric E/Z ratio of the obtained PSS-1b–h was determined by calculating the area of the easily distinguishable signals assigned to the E and Z isomers (Figure 4).
The solution was irradiated with UV-B light until reaching the PSSUV-B (almost completed in 50–80 min). Subsequently, the PSSUV-B solution was irradiated under the same conditions with UV-C light generated using two lamps (15 Watt GT15T8 Hg UV-C tube), observing the photoconversion of the cis isomer into the trans isomer without the appearance of photodegradation.

Details of series [5]: method as in PMID 35923722. The conditions noted are these: ref [40]; cited from earlier work.
Series [6] deals with T1, hAChE. Further details: method as in PMID 35923722. Particulars: read-out: AChE IC50; previously reported values; ref [40]; listed as E-1; cited from earlier work.
The mark [7] stands for this setting: human AChE, mean ± SD of three independent measurements, read-out: AChE IC50.

T4 sequence (P06276 29-602): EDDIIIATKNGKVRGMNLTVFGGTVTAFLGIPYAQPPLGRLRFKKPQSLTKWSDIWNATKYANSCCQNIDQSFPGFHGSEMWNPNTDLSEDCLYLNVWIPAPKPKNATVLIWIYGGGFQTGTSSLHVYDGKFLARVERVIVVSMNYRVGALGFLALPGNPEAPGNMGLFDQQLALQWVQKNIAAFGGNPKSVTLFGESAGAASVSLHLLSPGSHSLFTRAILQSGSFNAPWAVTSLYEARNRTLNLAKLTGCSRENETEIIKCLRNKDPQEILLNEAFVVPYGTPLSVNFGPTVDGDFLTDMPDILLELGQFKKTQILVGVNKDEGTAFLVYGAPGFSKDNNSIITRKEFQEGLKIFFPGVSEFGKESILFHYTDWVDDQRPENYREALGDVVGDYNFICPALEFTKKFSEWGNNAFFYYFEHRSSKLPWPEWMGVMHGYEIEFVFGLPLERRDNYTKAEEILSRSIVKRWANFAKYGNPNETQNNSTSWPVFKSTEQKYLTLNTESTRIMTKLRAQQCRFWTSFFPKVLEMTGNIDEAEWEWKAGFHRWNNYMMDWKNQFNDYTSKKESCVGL
T1 sequence (P22303 32-614): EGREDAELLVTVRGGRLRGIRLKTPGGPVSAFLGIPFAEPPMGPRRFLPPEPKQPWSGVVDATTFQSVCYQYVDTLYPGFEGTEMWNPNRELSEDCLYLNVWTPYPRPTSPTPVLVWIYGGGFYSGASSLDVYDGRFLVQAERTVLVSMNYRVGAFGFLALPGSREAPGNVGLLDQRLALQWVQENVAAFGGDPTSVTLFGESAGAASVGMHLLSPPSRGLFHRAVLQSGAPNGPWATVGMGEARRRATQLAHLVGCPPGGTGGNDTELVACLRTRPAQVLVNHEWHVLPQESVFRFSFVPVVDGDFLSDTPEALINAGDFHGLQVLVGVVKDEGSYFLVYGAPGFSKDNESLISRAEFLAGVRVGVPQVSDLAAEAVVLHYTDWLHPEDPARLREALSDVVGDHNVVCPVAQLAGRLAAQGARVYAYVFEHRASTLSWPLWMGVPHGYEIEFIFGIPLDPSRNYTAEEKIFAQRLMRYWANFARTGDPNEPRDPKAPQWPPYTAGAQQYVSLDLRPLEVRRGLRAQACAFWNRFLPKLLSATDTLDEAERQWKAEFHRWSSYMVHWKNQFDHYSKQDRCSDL
Description for BChE from human serum: Human isoforms of ChEs (human recombinant AChE and BChE from human serum) and MAOs (from baculovirus-infected insect cells), purchased from Sigma Aldrich (Milan, Italy), were used for inhibition assays. Experiments were performed in 96-well plates (Greiner Bio-One, Kremsmünster, Austria) on the Infinite M1000 Pro plate reader (Tecan, Cernusco s.N., Italy), using already published protocols [46, 58, 59, 60].
Description for human recombinant MAO B: In MAOs’ inhibition assays, each test compound, at 10 μM concentration, was preincubated for 20 min at 37 °C with 50 μM kynuramine as the substrate in 0.1 M phosphate-buffered solution (PBS) pH 8.0 made 0.39 osmolar with KCl. After the addition of human recombinant MAO-A (250 U/mg) or MAO B (59 U/mg) and a further 30 min of incubation, NaOH was added, and the fluorescence read at 310/400 nm excitation/emission wavelength. […] For the kinetic study on the inhibition mechanism of MAO B, three diverse scalar concentrations of the inhibitor and seven concentrations of kynuramine were used [40, 61, 62].

For orientation: IC50 means the midpoint of a concentration-inhibition curve. As usually defined, the inhibition is the percentage by which the read-out fell short of the control. `CCN(CC)Cc1ccc(C=C2Cc3cc(OC)ccc3C2=O)cc1` (mixture of isomers) [E/Z-1a]: the half-inhibitory concentration (IC50) against hAChE [1] is 780 ± 13 nM; on human recombinant MAO B, 1590 ± 40 nM. Moreover, the inhibition at 10 µM on human recombinant MAO-A is 45%; at BChE from human serum, 28%.
On to `CCCCN(C)Cc1ccc(/C=C2\Cc3cc(OC)ccc3C2=O)cc1` [Compound E-1e, (E)-2-(4-((Butyl(methyl)amino)methyl)benzylidene)-5-methoxy-2,3-dihydro-1H-inden-1-one], for which the IC50 on hAChE [1] (setting [7]) amounted to 102 ± 19 nM; at human recombinant MAO B, 178 ± 86 nM; at BChE from human serum it was 5000 ± 450 nM. For the same molecule, the inhibition at 10 µM at human recombinant MAO-A worked out at 20%.
Regarding `COc1ccc2c(c1)C/C(=C\c1ccc(CN(C(C)C)C(C)C)cc1)C2=O` [Compound E-1f, (E)-2-(4-((Diisopropylamino)methyl)benzylidene)-5-methoxy-2,3-dihydro-1H-inden-1-one], the IC50 was found to be 261 ± 14 nM at hAChE [1] (setting [7]) and 10000 ± 850 nM against BChE from human serum. Also, the inhibition at 10 µM on human recombinant MAO-A turned out to be 22%.
As to `COc1ccc2c(c1)CC(=Cc1ccc(CN(C)Cc3ccccc3)cc1)C2=O` [E/Z-1g], the IC50 at hAChE [1] (setting [7]) is 135 ± 62 nM; on human recombinant MAO B, 354 ± 70 nM. Besides, the inhibition at 10 µM amounted to 49% at human recombinant MAO-A and 40% at BChE from human serum.
With `CCCN(CCC)Cc1ccc(C=C2Cc3cc(OC)ccc3C2=O)cc1` [E/Z-1c], the IC50 was 295 ± 45 nM on hAChE [1] (setting [7]); 743 ± 48 nM on human recombinant MAO B; ~3000 nM and 2980 nM on human recombinant MAO-A. The inhibition at 10 µM at BChE from human serum was 20%.
With `CCN(Cc1ccccc1)Cc1ccc(C=C2Cc3cc(OC)ccc3C2=O)cc1` [E/Z-1h], the values for the IC50 on hAChE [1] (setting [7]), on human recombinant MAO B and at BChE from human serum were 53 ± 6 nM, 358 ± 8 nM and 10000 ± 320 nM, respectively. Also, the inhibition at 10 µM at human recombinant MAO-A amounted to 39%.
As a reminder, the Ki is the dissociation constant of the complex between target and ligand, obtained from inhibition or displacement. With `CCN(Cc1ccccc1)Cc1ccc(/C=C2\Cc3cc(OC)ccc3C2=O)cc1` [Compound E-1h, (E)-2-(4-((Benzyl(ethyl)amino)methyl)benzylidene)-5-methoxy-2,3-dihydro-1H-inden-1-one], the “decrease of AChE inhibitory potency on photoisomerization to Z (75% Z in PSS)” value on hAChE [1] (PSS mixture versus pure E isomer) is given as “about 30%”. Besides, the IC50 at hAChE [1] (setting [7]) is 39 ± 1 nM; at human recombinant MAO B, 355 ± 134 nM; against BChE from human serum it was 7000 ± 10 nM. In addition, the inhibition at 10 µM at human recombinant MAO-A was 13%. Besides, the “mechanism of AChE inhibition” value at hAChE [2] (Lineweaver–Burk, both Vmax and Km changed) is “mixed-type inhibition”. For the same molecule, the Ki at hAChE [2] (replot of slopes versus [I], x-axis intercept, hAChE 0.2 U/mL, acetylthiocholine iodide 50–300 μM) came out at 100 nM.
`COc1ccc2c(c1)C/C(=C\c1ccc(CN(C)C)cc1)C2=O` [Compound E-1b, (E)-2-(4-((Dimethylamino)methyl)benzylidene)-5-methoxy-2,3-dihydro-1H-inden-1-one]: the values for the IC50 at hAChE [1] (setting [7]) and on human recombinant MAO B were 155 ± 10 nM and 686 ± 59 nM, respectively. In addition, the inhibition at 10 µM at human recombinant MAO-A was 33%.
Turning to `CCCCN(CCCC)Cc1ccc(C=C2Cc3cc(OC)ccc3C2=O)cc1` [E/Z-1d], the IC50 on hAChE [1] (setting [7]) is 2280 ± 210 nM; on human recombinant MAO B it was 382 ± 6 nM. Also, the inhibition at 10 µM on human recombinant MAO-A worked out at 37%.
Regarding `CCN(CC)Cc1ccc(/C=C2/Cc3cc(OC)ccc3C2=O)cc1` [Compound Z-1a], the “half-life in MeOH at room temperature” value in series [3] is listed as 47 days.
`CCCCN(C)Cc1ccc(C=C2Cc3cc(OC)ccc3C2=O)cc1` [E/Z-1e]: the values for the IC50 at hAChE [1] (setting [7]) and on human recombinant MAO B were 1360 ± 60 nM and 651 ± 61 nM, respectively. Further, the inhibition at 10 µM at human recombinant MAO-A is 25%.
Consider `COc1ccc2c(c1)CC(=Cc1ccc(CN(C(C)C)C(C)C)cc1)C2=O` [E/Z-1f], for which the half-maximal inhibitory concentration (IC50) at hAChE [1] (setting [7]) was 1410 ± 90 nM; at human recombinant MAO B, 241 ± 26 nM; at human recombinant MAO-A, ~3000 nM and 3190 nM. In addition, the inhibition at 10 µM at BChE from human serum came out at 20%.
For `COc1ccc2c(c1)CC(=Cc1ccc(CN(C)C)cc1)C2=O` [E/Z-1b], the IC50 at hAChE [1] (setting [7]) was 915 ± 138 nM; at human recombinant MAO B it was 839 ± 123 nM. Also, the inhibition at 10 µM was 32% at human recombinant MAO-A and 25% at BChE from human serum.
In the case of `CCCCN(CCCC)Cc1ccc(/C=C2\Cc3cc(OC)ccc3C2=O)cc1` [Compound E-1d, (E)-2-(4-((Dibutylamino)methyl)benzylidene)-5-methoxy-2,3-dihydro-1H-inden-1-one], the IC50 at hAChE [1] (setting [7]) was found to be 990 ± 50 nM; on human recombinant MAO B, 338 ± 36 nM. Besides, the inhibition at 10 µM at human recombinant MAO-A was 12%; at BChE from human serum, 28%.
As to `CCCN(CCC)Cc1ccc(/C=C2\Cc3cc(OC)ccc3C2=O)cc1` [Compound E-1c, (E)-2-(4-((Dipropylamino)methyl)benzylidene)-5-methoxy-2,3-dihydro-1H-inden-1-one], the half-maximal inhibitory concentration (IC50) turned out to be 174 ± 17 nM at hAChE [1] (setting [7]) and 479 ± 81 nM on human recombinant MAO B. Moreover, the inhibition at 10 µM was determined as 15% on human recombinant MAO-A and 28% at BChE from human serum. Further, the “time to reach PSS under UV-B irradiation” value in series [4] was 50 to 80 min.
Regarding `CCN(CC)Cc1ccc(/C=C2\Cc3cc(OC)ccc3C2=O)cc1` [Compound E-1a, 2-(4-((diethylamino)methyl)benzylidene)-5-methoxy-2,3-dihydro-1H-inden-1-one], the IC50 is 105 ± 5 nM against hAChE [1], 260 ± 12 nM at human recombinant MAO B, 110 nM at hAChE [6] and 10000 ± 150 nM on BChE from human serum. Moreover, on human recombinant MAO-A, the inhibition at 10 µM worked out at 33%. In series [5], the “Z-isomer in the photostationary state (PSS) after UV-B light” value is on record as 75%.
`COc1ccc2c(c1)C/C(=C\c1ccc(CN(C)Cc3ccccc3)cc1)C2=O` [Compound E-1g, (E)-2-(4-((Benzyl(methyl)amino)methyl)benzylidene)-5-methoxy-2,3-dihydro-1H-inden-1-one]: the figures for the IC50 on hAChE [1] (setting [7]), at human recombinant MAO B and against BChE from human serum were 115 ± 4 nM, 292 ± 60 nM and 9900 ± 110 nM, respectively. For the same molecule, the inhibition at 10 µM on human recombinant MAO-A was found to be 39%.
